Laboratory results as given in US10632089B2, “Tyrosinase activity inhibitor and external preparation for skin” (JO Cosmetics Co., Ltd., priority 2015, dated 2020).
Changes are numbered by the printed parent chain. Counter-ions that a name gives are not always drawn. Like-named read-outs stand apart in the source and are kept apart here. Values belong to the molecule of their own block, whether it stands above or below them.

Experiments:
[1] = biological target: T1, tyrosinase (derived from mushrooms) (Agaricus bisporus, UniProt C7FF04); experiment: Test for evaluating inhibition of tyrosinase activity (DOPA substrate, absorbance at 475 nm); format: biochemical
T1 construct: purchased Sigma
Procedure: (§1) After 2 minutes of the addition, the test solution was subjected to measurement of absorbance at 475 nm. Thus-obtained absorbance value was defined as D1. As a control, the same measurement was conducted on a test solution in which each sample was replaced with purified water, and the obtained absorbance value was defined as D2. An inhibition rate of tyrosinase activity was calculated by the following formula.

[2] = system: tyrosinase (derived from mushrooms); experiment: as above; format: biochemical; details: for Inhibition rate of tyrosinase activity in the case of conbining human manganese SOD/Inhibition rate of tyrosinase activity in the case without addition of human manganese SOD: (B-1) 0 unit/mL; for Tyrosinase activity inhibition rate in the case of using both components/Sum of tyrosinase activity inhibition rate in the case of using each component alone: no second component
Procedure: as §1

[3] = see paragraphs 0060, 0061 and 0072 of Patent Document 6; cited from earlier work

T1 sequence (C7FF04 whole entry): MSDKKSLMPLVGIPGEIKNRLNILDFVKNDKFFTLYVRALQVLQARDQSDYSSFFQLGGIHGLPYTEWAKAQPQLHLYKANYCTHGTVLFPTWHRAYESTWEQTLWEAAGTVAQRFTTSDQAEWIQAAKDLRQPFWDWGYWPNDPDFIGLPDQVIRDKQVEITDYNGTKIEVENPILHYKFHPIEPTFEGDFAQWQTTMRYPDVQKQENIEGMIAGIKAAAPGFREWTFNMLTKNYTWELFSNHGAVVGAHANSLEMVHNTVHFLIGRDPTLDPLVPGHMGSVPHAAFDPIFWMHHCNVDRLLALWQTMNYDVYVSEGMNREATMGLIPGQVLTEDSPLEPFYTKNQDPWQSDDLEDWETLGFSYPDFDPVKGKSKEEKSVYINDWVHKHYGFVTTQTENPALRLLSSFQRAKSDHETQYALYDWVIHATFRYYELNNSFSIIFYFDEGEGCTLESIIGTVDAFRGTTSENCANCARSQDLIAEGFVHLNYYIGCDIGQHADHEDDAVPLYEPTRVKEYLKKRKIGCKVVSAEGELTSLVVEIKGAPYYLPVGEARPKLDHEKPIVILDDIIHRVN

- Inhibition rate of tyrosinase activity (%) ([1]; histidine dithiooctanamide (Na/zinc) solely, 1.08 μg/mL (2.5 μM)): 13.2%
- Inhibition rate of tyrosinase activity (%) ([1]; histidine dithiooctanamide (Na/zinc) solely, 2.15 μg/mL (5 μM)): 25.3%
- Inhibition rate of tyrosinase activity (%) ([1]; histidine dithiooctanamide (Na/zinc) solely, 3.23 μg/mL (7.5 μM)): 53.6%
- Inhibition rate of tyrosinase activity (%) ([1]; histidine dithiooctanamide (Na/zinc) solely, 4.31 μg/mL (10 μM)): 68.9%
- Inhibition rate of tyrosinase activity in the case of conbining human manganese SOD/Inhibition rate of tyrosinase activity in the case without addition of human manganese SOD ([2]; (A) 1.08 μg/mL): 1.00
- Tyrosinase activity inhibition rate in the case of using both components/Sum of tyrosinase activity inhibition rate in the case of using each component alone ([2]; (A) 1.08 μg/mL): 1.00
- Inhibition rate of tyrosinase activity in the case of conbining human manganese SOD/Inhibition rate of tyrosinase activity in the case without addition of human manganese SOD ([2]; (A) 2.15 μg/mL): 1.00
- Tyrosinase activity inhibition rate in the case of using both components/Sum of tyrosinase activity inhibition rate in the case of using each component alone ([2]; (A) 2.15 μg/mL): 1.00
- Inhibition rate of tyrosinase activity in the case of conbining human manganese SOD/Inhibition rate of tyrosinase activity in the case without addition of human manganese SOD ([2]; (A) 3.23 μg/mL): 1.00
- Inhibition rate of tyrosinase activity in the case of conbining human manganese SOD/Inhibition rate of tyrosinase activity in the case without addition of human manganese SOD ([2]; (A) 4.31 μg/mL): 1.00
Molecule: zinc chelate compound of N-(6,8-dimercaptooctanoyl)-L-histidine sodium salt [histidine dithiooctanamide (Na/zinc)]

- inhibition rate of tyrosinase activity ([1]; arbutin solely, 3.0% by mass): 71.3%
Molecule: OC[C@H]1O[C@@H](Oc2ccc(O)cc2)[C@H](O)[C@@H](O)[C@@H]1O [arbutin, reference compound]

- Inhibition rate of tyrosinase activity (%), (B) component only ([1]; (B-2) component only, 5 mg/mL): 15.6%
Molecule: O=C1O[C@H]([C@@H](O)CO)C([O-])=C1OP(=O)([O-])[O-].[Na+].[Na+].[Na+] [Sodium ascorbyl phosphate, sodium ascorbyl phosphate, reference compound]

- inhibition rate of tyrosinase activity ([1]; ascorbic acid derivative (ascorbyl glucoside) solely, 2.0% by mass): 21.9%
- inhibition at 5000 µg/mL ([1]; ascorbyl glucoside solely, 5 mg/mL, read-out: Inhibition rate of tyrosinase activity (%)): 8.4%
- inhibition at 10000 µg/mL ([1]; ascorbyl glucoside solely, 10 mg/mL, read-out: Inhibition rate of tyrosinase activity (%)): 15.4%
- inhibition at 20000 µg/mL ([1]; ascorbyl glucoside solely, 20 mg/mL, read-out: Inhibition rate of tyrosinase activity (%)): 26.8%
Molecule: O=C1O[C@H]([C@@H](O)CO)C(O)=C1O[C@H]1O[C@H](CO)[C@@H](O)[C@H](O)[C@H]1O [ascorbyl glucoside, 2-O-α-D-glucopyranosyl-L-ascorbic acid]

- Inhibition rate of tyrosinase activity (%) ([1]; α-lipoic acid solely, 4.31 μg/mL): 0.7%
- Tyrosinase activity inhibition rate in the case of using both components/Sum of tyrosinase activity inhibition rate in the case of using each component alone ([2]; α-lipoic acid 4.31 μg/mL): 1.00
Molecule: O=C(O)CCCCC1CCSS1 (stereo not drawn) [α-lipoic acid, 6,8-dithiooctanoic acid, reference compound]

- Inhibition rate of tyrosinase activity (%), (B) component only ([1]; (B-2) component only, 2.5 mg/mL): 40.5%
Molecule: O=C1O[C@H]([C@@H](O)CO)C([O-])=C1OS(=O)(=O)[O-].[Na+].[Na+] [Disodium ascorbyl sulfate, reference compound]

- Inhibition rate of tyrosinase activity (%), (B) component only ([1]; (B-2) component only, 5 mg/mL): 11.1%
Molecule: O=C1O[C@H]([C@@H](O)CO)C([O-])=C1OP(=O)([O-])[O-].O=C1O[C@H]([C@@H](O)CO)C([O-])=C1OP(=O)([O-])[O-].[Mg+2].[Mg+2].[Mg+2] [Magnesium ascorbyl phosphate, magnesium ascorbyl phosphate, reference compound]

Molecule: Cc1ncc(CO)c(CO)c1O [Pyridoxine hydrochloride, pyridoxine hydrochloride, reference compound]
- inhibition at 5000 µg/mL ([1]; read-out: Inhibition rate of tyrosinase activity (%)): 42.9%

Molecule: O=C1O[C@H]([C@@H](O)CO)C(O)=C1O [Ascorbic acid, ascorbic acid, reference compound]
- inhibition at 10 µg/mL ([1]; read-out: Inhibition rate of tyrosinase activity (%), (B) component only): 28.7%

- inhibition at 2500 µg/mL ([1]; (B-2) component only, 2.5 mg/mL, read-out: Inhibition rate of tyrosinase activity (%), (B) component only): 29.9%
Molecule: CCOC1=C(O)C(=O)O[C@@H]1[C@@H](O)CO [3-O-ethylascorbic acid, reference compound]

B1: MHS:Mn-SOD: human mutant manganese SOD, third amino acid from N-terminus serine substituted with arginine (Patent Document 6) (protein, UniProt P04179 25-222, looked up, variant S3R)
Superoxide dismutase [Mn], …: KHRLPDLPYDYGALEPHINAQIMQLHHSKHHAAYVNNLNVTEEKYQEALAKGDVTAQIALQPALKFNGGGHINHSIFWTNLSPNGGGEPKGELLEAIKRDFGSFDKFKEKLTAASVGVQGSGWGWLGFNKERGHLQIAACPNQDPLQGTTGLIPLLGIDVWEHAYYLQYKNVRPDYLKAIWNVINWENVTERYMACKK
- isoelectric point [3]: about 8.2

- Inhibition rate of tyrosinase activity (%) ([1]; human manganese SOD solely, 3 units/mL): 4.53%
- Inhibition rate of tyrosinase activity (%) ([1]; human manganese SOD solely, 3 units/mL, listed as (B-1) component): 4.5%
- Inhibition rate of tyrosinase activity (%) ([1]; human manganese SOD solely, 15 units/mL): 3.74%
- Inhibition rate of tyrosinase activity (%) ([1]; human manganese SOD solely, 15 units/mL, listed as (B-1) component): 3.7%
- Inhibition rate of tyrosinase activity (%) ([1]; human manganese SOD solely, 150 units/mL): 4.66%
- Inhibition rate of tyrosinase activity (%) ([1]; human manganese SOD solely, 150 units/mL, listed as (B-1) component): 4.7%
B2: human manganese SOD: human manganese superoxide dismutase, "yeast extract (SOD)" commercially available from Biox Technologies, 3,000 units/mL (protein, UniProt P04179 25-222, looked up)
Superoxide dismutase [Mn], …: B1 Superoxide dismutase [Mn], … with R3S
